Organism: Mus musculus
Test: animal or person
Settings: 24 h

## CCCC(CCC)C(=O)O [VALPROIC ACID]
  survival at 100 mg/kg: 80%

From ChEMBL document CHEMBL6182899, “Shooting an Arrow against Convulsion: Novel Triazole-Grafted Benzenesulfonamide Derivatives as Carbonic Anhydrase II and VII Inhibitors” (J Med Chem, 2025)
